Laboratory results taken from US11419878B2, “Medicine obtained by combining FXR agonist and ARB” (Intercept Pharmaceuticals, Inc., priority 2016, dated 2022).

Key:
[1] = system: TGF-β1; assay: HHSC fibrosis marker gene expression, RT-PCR, TGF-β1; assay type: cell-based, human; details: AT-II 10^-6M + LPS 10^-5M; ARB 10^-6M, obeticholic acid 5×10^-6M; 24 hours; monotherapy vs G2AL, combination vs monotherapy groups
Experimental: (§1) The various combined effects of obeticholic acid and three types of ARBs (losartan, valsartan, and candesartan) were confirmed in an in vitro cell system experiment. Specifically, using human hepatic stellate cells (HHSC), which are implicated in the main mechanism of progression of hepatic fibrosis in NASH, the effects of administration of obeticholic acid in combination with the three ARBs of inhibiting HHSC proliferation capacity and the expression of fibrosis markers were evaluated according to the following method. Human hepatic stellate cells (HHSC) (also referred to as human hepatic star cells) Obeticholic acid (obtained from Intercept Pharmaceuticals, Inc. via Sumitomo Dainippon Pharma Co., Ltd.) was used as an FXR agonist, and commercial losartan (potassium salt of losartan; referred to in this working example simply as “losartan”) and valsartan and candesartan ([…] of candesartan; referred to in this working example simply as “candesartan”) were used as ARBs. Angiotensin II (AT-II) and/or lipopolysaccharide (LPS) were used (both AT1-mediated AT-II signalling and TLR4-mediated LPS signaling are known to play major roles in HSC activation and the progression of hepatic fibrosis). With respect to the effect of inhibiting fibrosis marker gene expression, collagen production capacity and TGF-β production capacity were evaluated by the RT-PCR method. 1) HHSCs were inoculated onto a 6-well plate in the amount of 300,000 cells/2 ml and allowed to proliferate in 1% FBS DMEM medium for 24 hours. 2) After 24 hours, the cells were divided into the following 7 groups and transferred to culture medium after adding the following drugs and/or reagents. Losartan was used as an ARB. Negative control group (G1): No drugs added (control) […] AT-II (10^-6M) Positive control group L […]): LPS (10^-5M) Positive control group AL ([…]): (10^-6M)+LPS (10^-5M) Obeticholic acid administration (G3): AT-II (10^-6M)+LPS (10^-5M)+obeticholic acid (5×10^-6M) ARB administration (G4): AT-II (10^-6M)+LPS (10^-5M)+ARB (10^-6M) Obeticholic acid+ARB combined administration (G5): AT-II (10^-6M)+LPS (10^-5M)+obeticholic acid (5×10^-6M)+ARB (10^-6M) […] Evaluations were conducted in the five groups G1, G2AL, G3, G4, and G5.

[2] = system: human hepatic stellate cells (HHSC); assay: HHSC proliferation inhibition, WST-1 cell proliferation assay; assay type: cell-based; details: AT-II 10^-6M + LPS 10^-5M; ARB 10^-6M, obeticholic acid 5×10^-6M; 24 hours; WST-1 absorbance
Experimental: The various combined effects of obeticholic acid and three types of ARBs (losartan, valsartan, and candesartan) were confirmed in an in vitro cell system experiment. Specifically, using human hepatic stellate cells (HHSC), which are implicated in the main mechanism of progression of hepatic fibrosis in NASH, the effects of administration of obeticholic acid in combination with the three ARBs of inhibiting HHSC proliferation capacity and the expression of fibrosis markers were evaluated according to the following method. Human hepatic stellate cells (HHSC) (also referred to as human hepatic star cells) Obeticholic acid (obtained from Intercept Pharmaceuticals, Inc. via Sumitomo Dainippon Pharma Co., Ltd.) was used as an FXR agonist, and commercial losartan (potassium salt of losartan; referred to in this working example simply as “losartan”) and valsartan and candesartan ([…] of candesartan; referred to in this working example simply as “candesartan”) were used as ARBs. […] The direct action of inhibiting HIISC proliferation capacity was evaluated by means of a cell proliferation assay using WST-1 reagent. […] AT-II (10^-6M) Positive control group L […]): LPS 10^-5M) Positive control group AL ([…]): (10^-6M)+LPS (10^-5M) Obeticholic acid administration (G3): AT-II (10^-6M)+LPS (10^-5M)+obeticholic acid (5×10^-6M) ARB administration (G4): AT-II (10^-6M)+LPS (10^-5M)+ARB (10^-6M) Obeticholic acid+ARB combined administration (G5): AT-II (10^-6M)+LPS (10^-5M)+obeticholic acid (5×10^-6M)+ARB (10^-6M) 3) After the cells of the above groups (G1, G2A, G2L, G2AL, G3, G4, G5) were cultured for 24 hours, respective WST-1 cell proliferation assays were conducted, and the inhibitory effect of the pharmaceutical agents on cell proliferation was evaluated. The inhibitory effect of valsartan and candesartan on HHSC proliferation was also evaluated according to steps 1)-3) above. […]

[3] = system: α1(I) procollagen; assay: HHSC fibrosis marker gene expression, RT-PCR, α1(I) procollagen; assay type: cell-based, human; details: AT-II 10^-6M + LPS 10^-5M; ARB 10^-6M, obeticholic acid 5×10^-6M; 24 hours; monotherapy vs G2AL, combination vs monotherapy groups
Experimental: as §1

CCOc1nc2cccc(C(=O)O)c2n1Cc1ccc(-c2ccccc2-c2nn[nH]n2)cc1 [candesartan]
statistically significant inhibition: TGF-β1 mRNA expression induced by AT-II and LPS in HHSC [1] | promotion of activated HHSC proliferation by AT-II and LPS, compared to positive control group AL (G2AL) [2] | α1(I)-procollagen mRNA expression induced by AT-II and LPS in HHSC [3]

CCCCC(=O)N(Cc1ccc(-c2ccccc2-c2nnn[nH]2)cc1)[C@H](C(=O)O)C(C)C [valsartan]
statistically significant inhibition: TGF-β1 mRNA expression induced by AT-II and LPS in HHSC [1] | promotion of activated HHSC proliferation by AT-II and LPS, compared to positive control group AL (G2AL) [2] | α1(I)-procollagen mRNA expression induced by AT-II and LPS in HHSC [3]
